Data reported in patent US8481538B2, “Heterocyclic inhibitors of c-Met and uses thereof” (Vertex Pharmaceuticals Incorporated, priority 2006, dated 2013).

Biological target: c-Met (Homo sapiens, UniProt P08581)
Experiment: Ki determination for the inhibition of c-Met (standard radiometric kinase assay)
Assay type: biochemical
Conditions: radiometric 33P-ATP assay, 1.0 nM c-Met, 35 μM ATP, 0.5 mg/mL polyE4Y, competitive tight-binding fit
Method: Ki Determination for the Inhibition of c-Met
Compounds of the invention were screened for their ability to inhibit c-Met kinase activity using a standard radiometric assay. Briefly, in this kinase assay the transfer of the terminal ^33P-phosphate in ^33P-ATP to substrate polyE4Y is interrogated. The assay was carried out in 96-well plates to a final volume of 100 μL per well containing 1.0 nM c-Met, 100 mM HEPES (pH 7.5), 10 mM MgCl2, 25 mM NaCl, 0.01% BSA, 1 mM DTT, 0.5 mg/mL polyE4Y, and 35 μM ATP. Accordingly, compounds of the invention were dissolved in DMSO to make 10 mM initial stock solutions. Serial dilutions in DMSO were then made to obtain the final solutions for the assay. A 1.5 μL aliquot of DMSO or inhibitor in DMSO was added to each well. The reaction was initiated by the addition of ^33P-ATP and polyE4Y (obtained from Sigma). After 20 min, the reaction was quenched with 50 μL of 30% trichloroacetic acid (TCA) containing 4 mM ATP. The reaction mixture was transferred to the 0.66 mm GF filter plates (Corning) and washed three times with 5% TCA. Following the addition of 50 μL of Ultimate Gold™ high efficiency scintillant (Packard Bioscience), the samples were counted in a Packard TopCount NXT Microplate Scintillation and Luminescence Counter (Packard BioScience). The Ki values were calculated using Microsoft Excel Solver macros to fit the data to the kinetic model for competitive tight-binding inhibition.

Chain of c-Met (P08581 25-1390): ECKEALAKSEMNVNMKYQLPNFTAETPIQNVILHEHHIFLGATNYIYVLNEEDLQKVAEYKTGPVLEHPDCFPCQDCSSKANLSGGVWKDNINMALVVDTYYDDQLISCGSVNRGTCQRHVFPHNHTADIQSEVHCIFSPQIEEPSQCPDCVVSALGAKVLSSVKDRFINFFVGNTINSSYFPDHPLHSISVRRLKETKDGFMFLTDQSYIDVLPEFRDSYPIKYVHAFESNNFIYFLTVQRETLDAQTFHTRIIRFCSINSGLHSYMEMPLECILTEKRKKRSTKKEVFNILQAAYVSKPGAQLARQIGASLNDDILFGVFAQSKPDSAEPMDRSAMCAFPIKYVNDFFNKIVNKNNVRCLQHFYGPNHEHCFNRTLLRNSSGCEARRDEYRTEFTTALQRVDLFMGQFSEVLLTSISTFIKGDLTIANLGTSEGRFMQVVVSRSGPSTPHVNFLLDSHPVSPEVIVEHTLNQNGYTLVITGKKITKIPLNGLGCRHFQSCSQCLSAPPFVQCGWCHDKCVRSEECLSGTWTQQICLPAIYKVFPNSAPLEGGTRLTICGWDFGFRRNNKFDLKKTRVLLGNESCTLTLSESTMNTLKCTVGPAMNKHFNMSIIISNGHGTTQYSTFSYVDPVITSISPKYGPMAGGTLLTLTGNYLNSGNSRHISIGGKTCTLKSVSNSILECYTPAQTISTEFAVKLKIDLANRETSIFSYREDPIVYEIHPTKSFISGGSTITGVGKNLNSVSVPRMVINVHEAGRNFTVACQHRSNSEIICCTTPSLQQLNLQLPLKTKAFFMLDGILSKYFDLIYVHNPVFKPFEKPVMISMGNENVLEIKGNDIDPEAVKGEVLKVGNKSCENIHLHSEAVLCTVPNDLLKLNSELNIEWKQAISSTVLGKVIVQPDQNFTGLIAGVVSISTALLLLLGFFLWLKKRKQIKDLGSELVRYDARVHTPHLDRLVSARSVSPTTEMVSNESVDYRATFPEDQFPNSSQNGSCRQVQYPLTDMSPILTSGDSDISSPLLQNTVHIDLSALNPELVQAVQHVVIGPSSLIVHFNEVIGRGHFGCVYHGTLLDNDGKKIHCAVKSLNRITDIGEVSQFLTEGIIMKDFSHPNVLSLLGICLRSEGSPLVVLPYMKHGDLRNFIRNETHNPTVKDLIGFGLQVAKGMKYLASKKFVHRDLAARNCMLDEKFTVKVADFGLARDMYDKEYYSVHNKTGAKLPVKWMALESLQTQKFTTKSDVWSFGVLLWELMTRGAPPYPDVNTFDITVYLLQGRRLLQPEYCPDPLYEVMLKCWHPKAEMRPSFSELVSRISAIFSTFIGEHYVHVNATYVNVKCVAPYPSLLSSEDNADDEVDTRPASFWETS

SMILES	Ki [nM]
C[C@@H](NC(=O)c1nc(-c2ccc(C3(O)CCNCC3)cc2)cnc1N)c1nnc2ccc(Nc3cccc(Cl)c3)nn12 [Compound 68]	≤ 250
C[C@@H](NC(=O)c1nc(-c2cccc(N3CCNCC3)c2)cnc1N)c1nnc2ccc(Nc3cccc(Cl)c3)nn12 [Compound 69]	≤ 250
C[C@@H](NC(=O)c1nc(-c2ccc(CN3CCCC3)c(F)c2)cnc1N)c1nnc2ccc(Nc3cccc(Cl)c3)nn12 [Compound 70]	≤ 250
CCOc1ccc2nnc([C@@H](C)NC(=O)c3nc(-c4ccc(CN5CCCC5)cc4)cnc3N)n2n1 [Compound 71]	250 to 2500
C[C@@H](NC(=O)c1nc(-c2ccc(N3CCNCC3)cc2)cnc1N)c1nnc2ccc(Nc3cccc(Cl)c3)nn12 [Compound 72]	≤ 250
C[C@@H](NC(=O)c1nc(-c2ccccc2)cnc1N)c1nnc2sc(N)nn12 [Compound 74]	250 to 2500
Cc1nn2c([C@@H](C)NC(=O)c3nc(-c4ccccc4)cnc3N)nnc2s1 [Compound 75]	250 to 2500
C[C@@H](NC(=O)c1nc(-c2ccc(CN(C)C)cc2)cnc1N)c1nnc2ccc(Nc3cccc(Cl)c3)nn12 [Compound 76]	≤ 250
C[C@@H](NC(=O)c1nc(-c2cccc(C3CCNCC3)c2)cnc1N)c1nnc2ccc(Nc3cccc(Cl)c3)nn12 [Compound 77]	≤ 250
CNCc1ccc(-c2cnc(N)c(C(=O)N[C@H](C)c3nnc4ccc(Nc5cccc(Cl)c5)nn34)n2)cc1 [Compound 78]	≤ 250
Cc1ccc2nnc([C@@H](C)NC(=O)c3nc(-c4ccc(CN5CCCC5)cc4)cnc3N)n2n1 [Compound 79]	250 to 2500
C[C@@H](NC(=O)c1nc(-c2ccc(CN3CCCC3)cc2)cnc1N)c1nnc2ccc(-c3ccccc3)nn12 [Compound 80]	≤ 250
C[C@@H](NC(=O)c1nc(-c2cccs2)cnc1N)c1nnc2ccc(-c3ccccc3)nn12 [Compound 81]	250 to 2500
C[C@@H](NC(=O)c1nc(-c2cnn(C)c2)cnc1N)c1nnc2ccc(-c3ccccc3)nn12 [Compound 82]	250 to 2500
C[C@@H](NC(=O)c1nc(-c2cnn(C3CCNCC3)c2)cnc1N)c1nnc2ccc(-c3ccccc3)nn12 [Compound 83]	≤ 250
